In US7479540B1, “Adipomodulin and related molecules and methods” (priority 2003, dated 2009):
Values joined by “and” are separate entries in the source; they are usually repeats but may differ in a detail not shown here. Identical values can stand only once.

What was measured:
[1] = target: receptor for adipomodulin on NIH 3T3-L1 adipocytes (mouse); assay: 125I-ligand binding to 3T3-L1 adipocytes at 4 C, 2 h, competitor: excess unlabeled λ- + k-light chain mix
HSL+/+ adipocytes = assay: Lipolysis (glycerol release) in HSL+/+ adipocytes from wild type mice; format: cell-based, mouse; conditions: for Lipolysis (nmol glycerol produced): HSL +/+, 2 hours; for stimulation of lipolysis, result in words: HSL+/+ adipocytes compared with HSL−/−
Experimental: (§1) To determine whether adipomodulin acts through the classical HSL pathway, Sample 121 was tested in HSL+/+ and HSL−/− adipocytes derived from wild type and HSL knockout mice (obtained from Dr. Grant Mitchell, Sainte Justine Hospital, Montreal, Quebec, Canada), respectively. […] Lipolysis was measured as glycerol release from an adipocyte suspension. In each experiment, adipocytes were pooled from perigonadal fat of two to four 6-month-old mice of the same gender and genotype. One hundred microliters of adipocyte suspension were incubated for 2 hours in a final volume of […] of Krebs-Ringer-HEPES (30 mM) buffer (pH 7.4) supplemented with 2.5% BSA, 2.5% N6-[R-(−)-1-methyl-2-phenyl] adenosine ([…]), and 1 U/mL adenosine deaminase. In some tubes, the lipolytic beta3-adrenergic agonist CL316,243 ([…]) (Wyeth-Ayerst Research Laboratories, Princeton, N.J.) or cAMP agonist (dibutryl cAMP) were added. After a 2-hour incubation, the reaction was stopped by freezing on dry ice. The mixture was extracted with chloroform to remove triglycerides, and glycerol content was then determined by glycerol assay kit (Roche Diagnostics).

HSL−/− adipocytes = assay: Lipolysis (glycerol release) in HSL-/- adipocytes from HSL knockout mice; format: cell-based, mouse; conditions: 2 hours
Experimental: as §1

NIH 3T3-L1 adipocytes = assay: Lipolysis (glycerol) in differentiated NIH 3T3-L1 adipocytes (Example 8); format: cell-based, mouse; conditions: 0.1 mM, 4 hours, 37° C.
Experimental: (§2) Stimulation of lipolysis in differentiated 3T3-L1 cells was measured according to the procedure described in Hirsch, A. H. & Rosen, O. M., “Lipolytic stimulation modulates the subcellular distribution of hormone-sensitive lipase in 3T3-L1 cells,” J. Lipid Res., vol. 25, pp. 665-667 (1984), which is incorporated herein in its entirety. The 3T3-L1 preadipocyte cell line (from ATCC) was differentiated by treating confluent monolayers with dexamethasone 0.5 μM, 0.15 μM insulin, and methylisobutylxanthine (IBMX) 0.5 mM. After 48 hours, the cells were fed with fresh medium containing 0.15 μM insulin and maintained in culture for 24 hours. Next, the cells were maintained in insulin-free DMEM containing 10% fetal bovine serum for 4-5 days. On the day of experimentation, the differentiated cells were incubated in serum-free DMEM containing 0.2% fatty acid free BSA and 5 mM glucose and treated with adipomodulin, adipomodulin elution buffer, or IBMX at 37° C. for 4 hours. […] The levels of cAMP in the cytosol and the supernatant were measured by competitive radioimmunoassay. […] After several washing steps, the complexes of radioactive cAMP-antibody are counted in a gamma counter. […]

cAMP = cAMP radioimmunoassay in differentiated NIH 3T3-L1 adipocytes; format: cell-based, mouse
Experimental: as §2

| Compound | Lipolysis (nmol glycerol produced) (HSL+/+ adipocytes; 10 uM) | Lipolysis (nmol glycerol produced) (HSL−/− adipocytes; 10 uM) | stimulation of lipolysis, result in words (HSL+/+ adipocytes) | also measured |
| --- | --- | --- | --- | --- |
| adipomodulin (Sample 122) |  |  |  | Binding, CPM/well [1]: 3230 CPM/well and 3840 CPM/well |
| C[C@H](Cc1ccc2c(c1)OC(C(=O)[O-])(C(=O)[O-])O2)NC[C@H](O)c1cccc(Cl)c1.[Na+].[Na+] [CL316, 243] | 6.2 ± 1.1 | 1.1 ± 0.3 |  |  |
| CCCC(=O)Nc1ncnc2c1ncn2[C@@H]1O[C@@H]2COP(=O)(O)O[C@H]2[C@H]1OC(=O)CCC [Dibutryl cAMP, dibutryl cAMP] |  |  | stimulated lipolysis most dramatically in HSL+/+ adipocytes | Lipolysis (nmol glycerol produced) (HSL+/+ adipocytes; 1 mM): 7.6 ± 1.0 nmol glycerol produced; Lipolysis (nmol glycerol produced) (HSL−/− adipocytes; 1 mM): 1.1 ± 0.1 nmol glycerol produced |
| CC(C)Cn1c(=O)n(C)c(=O)c2[nH]cnc21 [IBMX, methylisobutylxanthine] |  |  |  | Lipolysis (NIH 3T3-L1 adipocytes): 3400 ± 50 pmol glycerol/well; cAMP (cAMP; 0.1 mM, 4 hours, 37° C.): 69 ± 4 fmol/well; effect on cAMP, result in words (cAMP; versus medium control and elution buffer controls): significant stimulation of cAMP |
| CC(C)NCC(O)c1ccc(O)c(O)c1 (stereo not drawn) [Isoproterenol, isoproterenol] | 5.8 ± 1.0 | 0.9 ± 0.2 | stimulated lipolysis most dramatically in HSL+/+ adipocytes |  |
